# Laboratory results reported in article PMC4226674, “A phase I trial of the HIV protease inhibitor nelfinavir in adults with solid tumors” (Oncotarget, 2014).
# Where two headings read alike, the source gives them in different places.
# Columns and labels:
# [1] = tested on: ATF3 and/or CHOP; experiment: ER stress markers ATF3/CHOP in PBMCs by immunoblotting; format: in vivo, human; conditions: DL4 (3125 mg bid)
# Method: (§1) Peripheral blood mononuclear cells (PBMCs) were collected at baseline, and then twice after starting nelfinavir: cycle 1 day 7 and cycle 1 day 42. Levels of P-AKT S473, P-EIF2 alpha S51, ATF3 and CHOP in PBMCs before and after nelfinavir were analyzed by immunoblotting. Blood was collected in Vacutainer CPT collection tubes with sodium heparin (BD Biosciences cat# 362753) and mononuclear cells were isolated as per the manufacturer's instructions. PBMCs were washed with PBS and lysed in 2X LSB buffer [33], aliquotted and stored at -80°C. For analysis, equal amounts of protein per sample were run on 10-12% SDS-PAGE gels, then transferred onto nitrocellulose membranes. Membranes were blocked in 5% milk in TBS + 0.1% tween (TBST) and incubated with primary antibody diluted in 5% BSA in TBST at 4 degrees overnight. The next day membranes were washed, incubated with HRP-linked secondary antibody and developed using ECL chemiluminescent reagent (GE Healthcare) and X-ray film as per the manufacturers instructions. The amount of P-AKT S473, P-EIF2 alpha S51, ATF3 or CHOP in the PBMCs at C1D7 and C1D42 were compared against a baseline sample for each patient, (prior to receiving nelfinavir). Antibodies against P-AKT S473 #4060, P-EIF2 alpha S51 #3398 and β-Actin #4970 were from Cell Signaling Technology (Danvers, MA). […]
# [2] = Method: This single institution, open-label, Phase Ia dose escalation study was performed to establish the MTD and DLT of nelfinavir in subjects with advanced refractory solid tumors. The study used a modified Fibonacci scheme, in which cohorts of three to six subjects were entered at each dose level until two patients developed DLT. If two or more subjects encountered DLT, then the MTD was exceeded. The MTD was defined as the dose level at which less than 2 of 6 subjects experienced DLT. Each cycle lasted 21 days. Up to 6 additional patients were allowed to be enrolled at the MTD in order to better establish potential rates of toxicity.
# Physical examinations, toxicity assessments and laboratory analyses were conducted weekly during cycle 1 and then every three weeks beginning cycle 2.
# The starting dose of nelfinavir was the FDA-approved dose in HIV patients of 1250 mg twice daily, which comprised dose level (DL) 1. Dose escalation proceeded in 625 mg, twice-daily increments (DL2: 1875 mg, DL3: 2500 mg, DL4: 3125 mg, DL5: 3750 mg, DL6: 4375 mg).
# Toxicity was graded according to the National Cancer Institute Common Toxicity Criteria, version 3.0.
# [3] = tested on: P-EIF2 alpha S51; experiment: ER stress marker P-EIF2 alpha in PBMCs by immunoblotting; format: in vivo, human; conditions: DL4 (3125 mg bid), after 7 or 42 days; printed as 'the same percentage'
# Method: as §1
# [4] = Nelfinavir plasma pharmacokinetics (HPLC-MS, noncompartmental); format: in vivo, human
# Method: To determine CYP3A4 phenotype, a single 3 mg oral dose of midazolam hydrochloride, a CYP3A4 substrate, was administered at day -2 (2 days prior to commencing nelfinavir) and again at steady state (cycle 1 day 20). Serial venous blood samples were collected at 15, 30, 60, 120, 180, 240, and 300 minutes following administration of midazolam. Nelfinavir pharmacokinetics (PK) were obtained after single dose administration, cycle 1 day 1, and again at steady state, cycle 2 day 1. Serial venous blood samples were collected pre-dose and at 1, 2, 3, 4, 5, 6 and 12 hours after administration. Plasma concentrations of midazolam and nelfinavir were determined with a validated assay employing high performance liquid chromatography (HPLC) with mass spectrometric detection. Noncompartmental pharmacokinetic analyses were performed with WinNonlin 5.2 (Pharsight). Individual concentration-time profiles were constructed for each patient, course and drug resulting in four profiles per patient (two each for midazolam and nelfinavir). The maximum plasma concentration (Cmax) and the time of maximum plasma concentration (Tmax) were the observed values. Drug exposure was estimated using the area under the concentration-time curve (AUC). The area under the concentration-time curve (AUC) from time zero to the time of the final quantifiable sample (AUClast) was calculated using the linear trapezoidal method. The area under the concentration-time curve from time zero to infinity (AUCinf) was calculated by extrapolation, using the terminal rate constant from the last measurable concentration.
# [5] = tested on: P-AKT S473, P-EIF2 alpha S51, ATF3, CHOP in PBMCs; experiment: Surrogate biomarkers in PBMCs by immunoblotting; format: in vivo, human
# Method: Blood was collected in Vacutainer CPT collection tubes with sodium heparin (BD Biosciences cat# 362753) and mononuclear cells were isolated as per the manufacturer's instructions. PBMCs were washed with PBS and lysed in 2X LSB buffer, aliquotted and stored at -80°C. For analysis, equal amounts of protein per sample were run on 10-12% SDS-PAGE gels, then transferred onto nitrocellulose membranes. Membranes were blocked in 5% milk in TBS + 0.1% tween (TBST) and incubated with primary antibody diluted in 5% BSA in TBST at 4 degrees overnight. The next day membranes were washed, incubated with HRP-linked secondary antibody and developed using ECL chemiluminescent reagent (GE Healthcare) and X-ray film as per the manufacturers instructions. […] Antibodies to CHOP sc-7351 and ATF3 sc-188 were from Santa Cruz Biotechnology (Santa Cruz, CA).
# [6] = Cycle 2 Day 1 steady state, 3125 mg bid, mean, n=6
smiles,measurement,setting,value
"Cc1c(O)cccc1C(=O)N[C@@H](CSc1ccccc1)[C@H](O)CN1C[C@H]2CCCC[C@H]2C[C@H]1C(=O)NC(C)(C)C [nelfinavir, Nelfinavir]",samples showing an increase in ATF3 and/or CHOP,[1],27%
same,MTD relative to FDA-approved dose for HIV (fold/times),[2]; 3125 mg bid vs doses typically used in HIV patients,2.5
same,onset of nelfinavir-induced neutropenia,"[2]; human, in vivo",≤ 3 days
same,recovery of neutropenia after discontinuation of drug,"[2]; human, in vivo",≤ 3 days
same,"ALT increase, treatment-related AE in cycle 1","[2]; human, in vivo, 21 days",5 (20.8) N (%)
same,"Abdominal pain, treatment-related AE in cycle 1","[2]; human, in vivo, 21 days",1 (4.2) N (%)
same,"Anemia, treatment-related AE in cycle 1","[2]; human, in vivo, 21 days",10 (41.7) N (%)
same,"Anorexia, treatment-related AE in cycle 1","[2]; human, in vivo, 21 days",1 (4.2) N (%)
same,"Belching, treatment-related AE in cycle 1","[2]; human, in vivo, 21 days",1 (4.2) N (%)
same,"Bloating/, treatment-related AE in cycle 1","[2]; human, in vivo, 21 days",3 (12.5) N (%)
same,"Cholesterol increase, treatment-related AE in cycle 1","[2]; human, in vivo, 21 days",3 (12.5) N (%)
same,"Dehydration, treatment-related AE in cycle 1","[2]; human, in vivo, 21 days",2 (8.3) N (%)
same,"Depression, treatment-related AE in cycle 1","[2]; human, in vivo, 21 days",1 (4.2) N (%)
same,"Diarrhea, treatment-related AE in cycle 1","[2]; human, in vivo, 21 days",12 (50.0) N (%)
same,"Fatigue, treatment-related AE in cycle 1","[2]; human, in vivo, 21 days",5 (20.8) N (%)
same,"Flatulence, treatment-related AE in cycle 1","[2]; human, in vivo, 21 days",1 (4.2) N (%)
same,"Heartburn, treatment-related AE in cycle 1","[2]; human, in vivo, 21 days",1 (4.2) N (%)
same,"Hyperglycemia, treatment-related AE in cycle 1","[2]; human, in vivo, 21 days",4 (16.7) N (%)
same,"Hyperkalemia, treatment-related AE in cycle 1","[2]; human, in vivo, 21 days",3 (12.5) N (%)
same,"Hypoalbuminemia, treatment-related AE in cycle 1","[2]; human, in vivo, 21 days",5 (20.8) N (%)
same,"Hypokalemia, treatment-related AE in cycle 1","[2]; human, in vivo, 21 days",1 (4.2) N (%)
same,"Hyponatremia, treatment-related AE in cycle 1","[2]; human, in vivo, 21 days",2 (8.3) N (%)
same,"Hypophosphatemia, treatment-related AE in cycle 1","[2]; human, in vivo, 21 days",1 (4.2) N (%)
same,"Hypothyroid, treatment-related AE in cycle 1","[2]; human, in vivo, 21 days",1 (4.2) N (%)
same,"Insomnia, treatment-related AE in cycle 1","[2]; human, in vivo, 21 days",1 (4.2) N (%)
same,"Leukopenia, treatment-related AE in cycle 1","[2]; human, in vivo, 21 days",4 (16.7) N (%)
same,"Lymphopenia, treatment-related AE in cycle 1","[2]; human, in vivo, 21 days",10 (41.7) N (%)
same,"Nausea, treatment-related AE in cycle 1","[2]; human, in vivo, 21 days",2 (8.3) N (%)
same,"Neutropenia, treatment-related AE in cycle 1","[2]; human, in vivo, 21 days",5 (20.8) N (%)
same,"Palpitations, treatment-related AE in cycle 1","[2]; human, in vivo, 21 days",1 (4.2) N (%)
same,"Thrombocytopenia, treatment-related AE in cycle 1","[2]; human, in vivo, 21 days",2 (8.3) N (%)
same,"anemia, treatment-related AE in cycle 1","[2]; human, in vivo, 21 days",41.7%
same,"diarrhea, treatment-related AE in cycle 1","[2]; human, in vivo, 21 days",50%
same,"fatigue, treatment-related AE in cycle 1","[2]; human, in vivo, 21 days",20.8%
same,"hypoalbuminemia, treatment-related AE in cycle 1","[2]; human, in vivo, 21 days",20.8%
same,"lymphopenia, treatment-related AE in cycle 1","[2]; human, in vivo, 21 days",41.7%
same,dose limiting toxicity (DLT),"[2]; human, in vivo, po",grade 4 neutropenia
same,cumulative toxicities,[2]; in vivo,No cumulative toxicities were observed
same,maximum tolerated dose (MTD),"[2]; oral, twice daily, 21-day cycles, advanced solid tumors",3125 mg
same,subject PBMCs showing an increase in P-EIF2 alpha S51,[3],45%
same,CL_F,"[4]; Cycle 1 Day 1, first oral dose 3125 mg, mean, n=10","49,020 mL/h"
same,CL_F,[4]; [6],"59,826 mL/h"
same,Evening Trough,[4]; [6],2883 ng/mL
same,Morning Trough,[4]; [6],4597 ng/mL
same,doses above which PK showed potential non-linearity,"[4]; human, in vivo",1875 to 2500 mg
same,AUC(0-inf),"[4]; human, in vivo, po, 1250 mg",24500 ng·h/mL
same,AUC(0-t),"[4]; human, in vivo, po, 1250 mg",16600 ng·h/mL
same,CL_F,"[4]; human, in vivo, po, 1250 mg","52,714 mL/h"
same,Cmax,"[4]; human, in vivo, po, 1250 mg",2390 ng/mL
same,Tmax,"[4]; human, in vivo, po, 1250 mg",3.7 h
same,half-life,"[4]; human, in vivo, po, 1250 mg",6.6 h
same,AUC(0-inf),"[4]; human, in vivo, po, 1875 mg",189000 ng·h/mL
same,AUC(0-t),"[4]; human, in vivo, po, 1875 mg",73900 ng·h/mL
same,CL_F,"[4]; human, in vivo, po, 1875 mg","21,034 mL/h"
same,Cmax,"[4]; human, in vivo, po, 1875 mg",10400 ng/mL
same,Tmax,"[4]; human, in vivo, po, 1875 mg",3.8 h
same,half-life,"[4]; human, in vivo, po, 1875 mg",11.9 h
same,AUC(0-inf),"[4]; human, in vivo, po, 2500 mg",79400 ng·h/mL
same,AUC(0-t),"[4]; human, in vivo, po, 2500 mg",61000 ng·h/mL
same,CL_F,"[4]; human, in vivo, po, 2500 mg","55,342 mL/h"
same,Tmax,"[4]; human, in vivo, po, 2500 mg",6 h
same,half-life,"[4]; human, in vivo, po, 2500 mg",4.5 h
same,AUC(0-inf),"[4]; human, in vivo, po, 3750 mg",131000 ng·h/mL
same,AUC(0-t),"[4]; human, in vivo, po, 3750 mg",61500 ng·h/mL
same,CL_F,"[4]; human, in vivo, po, 3750 mg","52,114 mL/h"
same,Cmax,"[4]; human, in vivo, po, 3750 mg",7920 ng/mL
same,Tmax,"[4]; human, in vivo, po, 3750 mg",2.7 h
same,half-life,"[4]; human, in vivo, po, 3750 mg",9.2 h
same,Cmax,"[4]; human, in vivo, Cycle 1 Day 1, first oral dose 2500 mg, mean, n=3, read-out: Cmax",9740 ng/mL
same,AUC(0-inf),"[4]; human, in vivo, Cycle 1 Day 1, first oral dose 3125 mg, mean, n=10, read-out: AUCinf",140000 ng·h/mL
same,half-life,"[4]; human, in vivo, Cycle 1 Day 1, first oral dose 3125 mg, mean, n=10, read-out: T1/2 (converted)",9.2 h
same,AUC(0-t),"[4]; human, in vivo, Cycle 1 Day 1, first oral dose 3125 mg, mean, n=13, read-out: AUClast",56900 ng·h/mL
same,Cmax,"[4]; human, in vivo, Cycle 1 Day 1, first oral dose 3125 mg, mean, n=13, read-out: Cmax",7640 ng/mL
same,Tmax,"[4]; human, in vivo, Cycle 1 Day 1, first oral dose 3125 mg, mean, n=13, read-out: Tmax",4.8 h
same,Cmax,"[4]; human, in vivo, Cycle 2 Day 1 steady state, 3125 mg bid, mean, n=7, read-out: Cmax",9550 ng/mL
same,Tmax,"[4]; human, in vivo, Cycle 2 Day 1 steady state, 3125 mg bid, mean, n=7, read-out: Tmax",3.3 h
same,AUC(0-t),"[4]; human, in vivo, Cycle 2 Day 1 steady state, 3125 mg bid, mean, read-out: AUClast",60000 ng·h/mL
same,change of overall exposure or maximal plasma concentration with dose,[4]; in vivo,No increase
same,dose linearity of first dose pharmacokinetics,"[4]; in vivo, po",Non-linear pharmacokinetics
same,biomarker changes in PBMCs from baseline,"[5]; DL1 or DL2 (1250, 1875 mg bid)",no biomarker changes
same,subjects with decrease in P-AKT S473 or increase in EIF2 alpha S51 phosphorylation,[5]; DL3 (2500 mg bid),1 out of 3
same,subjects showing changes in 3 of 4 biomarkers evaluated,[5]; DL4 (3125 mg bid),3
same,effect on markers of ER stress in peripheral blood mononuclear cells,[5]; in vivo,induced markers of ER stress
